Measured values as given in patent publication US8415469B2, “Compounds and methods for kinase modulation, and indications therefor” (Plexxikon Inc., priority 2005, dated 2013).

Key:
Format in all cases: biochemical
Jnk1 = biological target: T1, Jnk1 (Homo sapiens, UniProt P45983); test: AlphaScreen kinase assay, Jnk1; conditions: read-out: IC50, activity toward kinase Jnk1
T1 construct: purchased Upstate Biotechnology

Gsk3β = Gsk3β (Homo sapiens, UniProt P49841); test: AlphaScreen kinase assay, Gsk3β; conditions: read-out: IC50, activity toward kinase Gsk3β
How it was run: (§1)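 Emission from acceptor beads reports phosphorylated biotin-peptide bridging antibody-coated acceptor and streptavidin donor beads; loss of signal reflects kinase inhibition. Eight-point, threefold dilution series prepared from 20 mM DMSO stocks.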

B-Raf = biological target: T2, B-Raf (Homo sapiens, UniProt P15056); test: AlphaScreen kinase assay, B-Raf; conditions: read-out: IC50, activity toward kinase B-Raf
T2 construct: purchased Upstate Biotechnology

Fms = biological target: T3, Fms (Homo sapiens, UniProt P07333); test: AlphaScreen kinase assay, Fms; conditions: read-out: IC50, activity toward kinase Fms
T3 construct: purchased Upstate Biotechnology

Jnk3 = biological target: T4, Jnk3 (Homo sapiens, UniProt P53779); test: AlphaScreen kinase assay, Jnk3; conditions: read-out: IC50, activity toward kinase Jnk3
T4 construct: purchased Upstate Biotechnology

TEC = biological target: T5, TEC (Homo sapiens, UniProt P42680); test: AlphaScreen kinase assay, TEC; conditions: read-out: IC50, activity toward kinase TEC
T5 sequence (P42680 1-631): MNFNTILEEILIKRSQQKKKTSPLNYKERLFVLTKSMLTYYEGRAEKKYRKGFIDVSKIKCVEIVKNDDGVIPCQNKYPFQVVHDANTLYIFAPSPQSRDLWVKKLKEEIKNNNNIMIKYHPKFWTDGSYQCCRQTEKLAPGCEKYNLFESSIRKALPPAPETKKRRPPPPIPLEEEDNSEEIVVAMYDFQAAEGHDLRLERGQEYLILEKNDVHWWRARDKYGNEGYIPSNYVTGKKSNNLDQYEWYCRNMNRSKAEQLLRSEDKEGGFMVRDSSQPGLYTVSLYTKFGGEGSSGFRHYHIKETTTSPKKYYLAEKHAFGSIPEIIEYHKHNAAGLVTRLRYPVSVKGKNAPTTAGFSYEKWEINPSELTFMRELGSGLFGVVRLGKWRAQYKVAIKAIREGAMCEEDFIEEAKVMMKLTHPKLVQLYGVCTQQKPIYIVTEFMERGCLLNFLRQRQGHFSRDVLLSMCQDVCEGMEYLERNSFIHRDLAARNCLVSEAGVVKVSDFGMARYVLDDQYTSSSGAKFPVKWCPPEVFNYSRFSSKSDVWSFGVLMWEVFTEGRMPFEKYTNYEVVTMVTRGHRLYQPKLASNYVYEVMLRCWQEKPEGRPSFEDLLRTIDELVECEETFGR
Source text: (§2) AlphaScreen assay was used to screen additional kinases. The assay is similarly dependent on the phosphorylation of a peptide substrate. In this assay, an antibody that recognizes phosphorylated substrate is bound to an acceptor bead. The peptide substrate is attached to biotin, which binds to a donor head that contains streptavidin. Thus phosphorylated substrate is bound by antibody and streptavidin, bringing the donor and acceptor heads into close proximity when kinase is not inhibited. The donor produces singlet oxygen which results in emission from the acceptor when they are in close proximity. Conversely, when kinase is inhibited, the donor and acceptor beads are not associated and the emission from the acceptor is reduced.
(§3) AlphaScreen assays were done using compounds dissolved in DMSO to a concentration of 20 mM. The compounds were diluted accordingly to the desired final concentrations in each sample well, using 1:3 serial dilution for a total of 8 concentration points.

B-Raf V600E = biological target: T6, B-Raf V600E (Homo sapiens, UniProt P15056, V600E); test: AlphaScreen kinase assay, B-Raf V600E; conditions: read-out: IC50, activity toward kinase B-Raf V600E
T6 construct: P4254. pFastBacBD-CDC37 BRAF D437-K722-X, V600E; His6 with pFastBac HT leader (TEV site) (N); made in house; host or cells: Sf9 (baculovirus; chaperone CDC37 co-expressed)

FGFR1 = biological target: T7, FGFR1 (Homo sapiens, UniProt P11362, C488A/C584S); test: AlphaScreen kinase assay, FGFR1; conditions: read-out: IC50, activity toward kinase FGFR
T7 construct: P1351.pET N6 BI-PTP FGFR A458-E765-X C488A, C584S; made in house; host or cells: E. coli (PTP1B co-expressed)

Src = biological target: T8, Src (Homo sapiens, UniProt P12931); test: AlphaScreen kinase assay, Src; conditions: read-out: IC50, activity toward kinase Src
T8 construct: P1144. pET-N6 BI-PTP SRC V86-L536-X; made in house

Flt1 = biological target: T9, Flt1 (Homo sapiens, UniProt P17948); test: AlphaScreen kinase assay, Flt1; conditions: read-out: IC50, activity toward kinase Flt1
T9 construct: P1826.pETN6 BI-PTP FLT1 M799-D1165-X WT; His6 (N); made in house; host or cells: E. coli (PTP1B co-expressed)
T9 sequence (P17948 with tags, fused parts or gaps): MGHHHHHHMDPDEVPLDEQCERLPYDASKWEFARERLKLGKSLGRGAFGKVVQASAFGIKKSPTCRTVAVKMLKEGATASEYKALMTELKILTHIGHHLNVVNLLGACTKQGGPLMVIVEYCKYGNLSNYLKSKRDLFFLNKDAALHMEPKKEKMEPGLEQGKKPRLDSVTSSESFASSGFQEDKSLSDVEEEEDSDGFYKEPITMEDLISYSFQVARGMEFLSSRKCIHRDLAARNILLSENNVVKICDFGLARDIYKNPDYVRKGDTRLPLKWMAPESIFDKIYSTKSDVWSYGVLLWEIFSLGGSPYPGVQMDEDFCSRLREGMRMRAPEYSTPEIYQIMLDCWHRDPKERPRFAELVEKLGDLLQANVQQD

c-Raf-1 = biological target: T10, c-Raf-1 (Homo sapiens, UniProt P04049); test: AlphaScreen kinase assay, c-Raf-1; conditions: read-out: IC50, activity toward kinase c-Raf-1
T10 construct: purchased Upstate Biotechnology

Kit = biological target: T11, Kit (Homo sapiens, UniProt P10721); test: AlphaScreen kinase assay, Kit; conditions: read-out: IC50, activity toward kinase Kit
T11 construct: P1332.N6 BI PTP KIT M552-K948-X COD; His6 (N); made in house; host or cells: E. coli (PTP1B co-expressed)
Description: AlphaScreen assays were done using compounds dissolved in DMSO to a concentration of 20 mM. The compounds were diluted accordingly to the desired final concentrations in each sample well, using 1:3 serial dilution for a total of 8 concentration points. Plates were prepared such that each kinase reaction is 20 μl in 1× kinase buffer, 5% DMSO and 10 μM ATP. After incubation of the kinase reaction for 1 hour at room temperature, 5 μl of donor beads in stop buffer (50 mM EDTA in 1× kinase buffer) was added, the sample was mixed and incubated for 20 minutes at room temperature before adding 5 μl of acceptor beads in stop buffer. The samples were incubated for 60 minutes at room temperature and the signal per well was read on AlphaQuest reader.

MAP4K4 = MAP4K4 (Homo sapiens, UniProt O95819); test: AlphaScreen kinase assay, MAP4K4; conditions: read-out: IC50, activity toward kinase MAP4K4
Btk = biological target: T12, Btk (Homo sapiens, UniProt Q06187); test: Z'-Lyte FRET kinase assay (Invitrogen), Btk; conditions: read-out: IC50, activity toward kinase Btk
T12 construct: purchased Invitrogen (assay run by Invitrogen)

Csk = Csk (Homo sapiens, UniProt P41240); test: AlphaScreen kinase assay, Csk; conditions: read-out: IC50, activity toward kinase Csk
Source text: as §2, §3

Frk = Frk (Homo sapiens, UniProt P42685); test: AlphaScreen kinase assay, Frk; conditions: read-out: IC50, activity toward kinase Frk
Source text: as §2, §3

Brk = Brk (Homo sapiens, UniProt Q13882); test: AlphaScreen kinase assay, Brk; conditions: read-out: IC50, activity toward kinase Brk
Source text: as §2, §3

Stk6 = biological target: T13, Stk6 (Homo sapiens, UniProt O14965); test: Z'-Lyte FRET kinase assay (Invitrogen), Stk6; conditions: read-out: IC50, activity toward kinase Stk6
T13 construct: purchased Invitrogen (Carlsbad, Calif.), screening service
T13 sequence (O14965 1-403): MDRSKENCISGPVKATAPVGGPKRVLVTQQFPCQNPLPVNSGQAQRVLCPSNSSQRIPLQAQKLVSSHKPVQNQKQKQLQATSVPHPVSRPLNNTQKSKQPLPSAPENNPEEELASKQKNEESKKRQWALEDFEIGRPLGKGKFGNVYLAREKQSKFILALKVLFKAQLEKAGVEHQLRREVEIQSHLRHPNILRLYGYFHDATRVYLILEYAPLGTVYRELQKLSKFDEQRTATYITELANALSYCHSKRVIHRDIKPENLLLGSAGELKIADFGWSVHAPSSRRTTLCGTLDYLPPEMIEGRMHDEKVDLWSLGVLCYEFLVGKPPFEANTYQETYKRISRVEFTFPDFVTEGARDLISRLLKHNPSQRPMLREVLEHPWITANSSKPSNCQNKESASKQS

Fak = biological target: T14, Fak (Homo sapiens, UniProt Q05397); test: AlphaScreen kinase assay, Fak; conditions: read-out: IC50, activity toward kinase Fak
T14 construct: P1358.pFastBacHtb FAK S411-Q686-X; His6 with pFastBacHTb leader (TEV site) (N); made in house; host or cells: Sf9 (baculovirus)

Kdr = biological target: T15, Kdr (Homo sapiens, UniProt P35968); test: Z'-Lyte FRET kinase assay (Invitrogen), Kdr; conditions: read-out: IC50, activity toward kinase Kdr
T15 construct: purchased Invitrogen (assay run by Invitrogen)

Plk1 = Plk1 (Homo sapiens, UniProt P53350); test: AlphaScreen kinase assay, Plk1; conditions: read-out: IC50, activity toward kinase Plk1
How it was run: as §1

Measured: IC50

Chain of Csk (P41240 whole entry): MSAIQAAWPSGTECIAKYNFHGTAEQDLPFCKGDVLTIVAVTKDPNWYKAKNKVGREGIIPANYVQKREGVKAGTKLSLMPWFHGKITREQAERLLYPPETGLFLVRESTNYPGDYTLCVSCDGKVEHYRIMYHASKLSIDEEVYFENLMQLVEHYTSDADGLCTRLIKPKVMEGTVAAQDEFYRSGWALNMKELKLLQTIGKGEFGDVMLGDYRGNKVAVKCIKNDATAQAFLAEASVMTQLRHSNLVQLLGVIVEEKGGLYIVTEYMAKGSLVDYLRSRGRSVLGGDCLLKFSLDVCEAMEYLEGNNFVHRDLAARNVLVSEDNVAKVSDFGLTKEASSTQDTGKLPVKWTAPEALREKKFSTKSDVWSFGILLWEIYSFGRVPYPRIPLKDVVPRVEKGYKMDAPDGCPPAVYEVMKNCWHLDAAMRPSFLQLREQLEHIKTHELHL
T3 sequence (P07333 20-972): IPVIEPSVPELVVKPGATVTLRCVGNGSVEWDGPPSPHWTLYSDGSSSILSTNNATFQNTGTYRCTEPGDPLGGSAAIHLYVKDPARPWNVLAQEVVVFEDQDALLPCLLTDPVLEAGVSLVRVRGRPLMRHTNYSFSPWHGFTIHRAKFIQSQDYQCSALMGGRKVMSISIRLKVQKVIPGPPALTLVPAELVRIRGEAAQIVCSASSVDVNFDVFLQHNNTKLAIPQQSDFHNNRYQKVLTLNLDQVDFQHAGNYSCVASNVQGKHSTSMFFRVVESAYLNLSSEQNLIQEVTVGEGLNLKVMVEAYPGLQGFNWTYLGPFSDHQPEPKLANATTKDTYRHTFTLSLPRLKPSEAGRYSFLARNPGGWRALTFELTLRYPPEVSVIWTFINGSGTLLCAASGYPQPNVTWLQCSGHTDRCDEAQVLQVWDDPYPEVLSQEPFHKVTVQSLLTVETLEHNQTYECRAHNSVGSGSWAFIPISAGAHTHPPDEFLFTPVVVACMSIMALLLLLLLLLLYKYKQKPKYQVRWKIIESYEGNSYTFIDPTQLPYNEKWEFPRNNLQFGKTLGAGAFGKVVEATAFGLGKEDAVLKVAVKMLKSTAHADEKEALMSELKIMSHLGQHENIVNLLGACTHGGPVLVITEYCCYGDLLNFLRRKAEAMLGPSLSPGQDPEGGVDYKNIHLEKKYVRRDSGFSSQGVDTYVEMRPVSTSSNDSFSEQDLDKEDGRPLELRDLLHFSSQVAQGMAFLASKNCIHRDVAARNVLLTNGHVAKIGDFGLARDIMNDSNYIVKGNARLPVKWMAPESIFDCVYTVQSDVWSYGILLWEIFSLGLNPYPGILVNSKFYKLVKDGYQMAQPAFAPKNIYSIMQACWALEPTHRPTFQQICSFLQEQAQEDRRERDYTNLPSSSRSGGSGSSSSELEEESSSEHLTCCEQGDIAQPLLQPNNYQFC
T8 sequence (P12931 with tags, fused parts or gaps): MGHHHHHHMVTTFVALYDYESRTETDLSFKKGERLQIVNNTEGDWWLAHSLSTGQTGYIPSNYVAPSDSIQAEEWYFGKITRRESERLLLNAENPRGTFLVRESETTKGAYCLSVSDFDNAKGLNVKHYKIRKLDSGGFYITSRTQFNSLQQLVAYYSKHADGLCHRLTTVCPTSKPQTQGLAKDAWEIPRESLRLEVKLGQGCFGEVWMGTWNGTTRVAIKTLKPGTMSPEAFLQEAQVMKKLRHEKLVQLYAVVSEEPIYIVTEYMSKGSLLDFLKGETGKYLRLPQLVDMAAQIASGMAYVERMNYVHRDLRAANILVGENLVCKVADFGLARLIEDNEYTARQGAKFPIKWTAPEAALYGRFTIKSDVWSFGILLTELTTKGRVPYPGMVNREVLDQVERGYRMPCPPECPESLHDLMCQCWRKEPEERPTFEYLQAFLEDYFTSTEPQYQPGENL
T6 sequence (P15056 with tags, fused parts or gaps V600E): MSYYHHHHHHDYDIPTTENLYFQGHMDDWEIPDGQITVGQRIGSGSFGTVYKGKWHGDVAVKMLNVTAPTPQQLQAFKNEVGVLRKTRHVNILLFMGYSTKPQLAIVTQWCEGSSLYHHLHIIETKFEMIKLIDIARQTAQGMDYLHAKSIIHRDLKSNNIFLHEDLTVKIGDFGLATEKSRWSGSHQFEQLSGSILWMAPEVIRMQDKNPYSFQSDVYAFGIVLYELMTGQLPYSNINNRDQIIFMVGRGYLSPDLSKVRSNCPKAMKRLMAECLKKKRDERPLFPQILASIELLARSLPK
T7 sequence (P11362 458-765 C488A/C584S): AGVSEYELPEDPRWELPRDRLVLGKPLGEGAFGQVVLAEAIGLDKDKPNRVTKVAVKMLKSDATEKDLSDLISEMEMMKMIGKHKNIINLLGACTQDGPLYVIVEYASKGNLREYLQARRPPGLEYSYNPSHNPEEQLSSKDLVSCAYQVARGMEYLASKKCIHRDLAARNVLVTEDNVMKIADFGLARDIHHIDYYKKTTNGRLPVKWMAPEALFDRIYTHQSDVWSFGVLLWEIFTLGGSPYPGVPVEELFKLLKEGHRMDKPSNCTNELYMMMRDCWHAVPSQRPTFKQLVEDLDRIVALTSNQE
Chain of Brk (Q13882 whole entry): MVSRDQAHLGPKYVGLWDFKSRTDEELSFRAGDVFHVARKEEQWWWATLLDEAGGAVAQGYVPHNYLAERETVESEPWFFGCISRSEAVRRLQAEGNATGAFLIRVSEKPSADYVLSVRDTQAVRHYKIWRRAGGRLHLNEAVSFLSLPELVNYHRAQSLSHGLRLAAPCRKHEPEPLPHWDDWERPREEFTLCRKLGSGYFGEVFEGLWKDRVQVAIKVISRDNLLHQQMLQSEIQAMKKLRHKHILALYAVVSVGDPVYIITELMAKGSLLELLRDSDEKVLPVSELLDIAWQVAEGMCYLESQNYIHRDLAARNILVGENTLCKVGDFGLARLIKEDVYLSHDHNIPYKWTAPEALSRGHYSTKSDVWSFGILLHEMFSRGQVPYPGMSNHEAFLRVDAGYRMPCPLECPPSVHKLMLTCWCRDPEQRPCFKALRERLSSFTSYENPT
T2 sequence (P15056 whole entry): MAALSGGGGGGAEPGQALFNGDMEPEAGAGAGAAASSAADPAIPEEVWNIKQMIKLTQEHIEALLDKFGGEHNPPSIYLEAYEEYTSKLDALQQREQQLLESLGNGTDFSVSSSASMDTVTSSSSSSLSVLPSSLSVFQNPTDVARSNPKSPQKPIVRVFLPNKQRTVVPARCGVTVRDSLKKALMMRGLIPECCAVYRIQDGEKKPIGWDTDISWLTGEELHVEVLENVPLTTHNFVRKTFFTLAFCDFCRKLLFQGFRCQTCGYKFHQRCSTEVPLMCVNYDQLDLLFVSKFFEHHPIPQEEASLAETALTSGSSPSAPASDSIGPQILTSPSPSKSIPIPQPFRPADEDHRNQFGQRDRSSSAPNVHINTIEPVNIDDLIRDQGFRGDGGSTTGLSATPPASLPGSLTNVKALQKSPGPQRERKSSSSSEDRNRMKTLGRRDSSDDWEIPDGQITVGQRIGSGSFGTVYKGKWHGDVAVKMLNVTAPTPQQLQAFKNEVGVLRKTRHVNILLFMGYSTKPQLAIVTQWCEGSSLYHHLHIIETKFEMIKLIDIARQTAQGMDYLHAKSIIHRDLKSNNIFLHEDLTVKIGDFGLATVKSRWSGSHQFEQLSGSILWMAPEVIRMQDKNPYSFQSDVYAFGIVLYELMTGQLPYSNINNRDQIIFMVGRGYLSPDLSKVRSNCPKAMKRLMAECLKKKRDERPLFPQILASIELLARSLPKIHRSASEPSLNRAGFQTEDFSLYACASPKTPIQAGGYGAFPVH
T10 sequence (P04049 whole entry): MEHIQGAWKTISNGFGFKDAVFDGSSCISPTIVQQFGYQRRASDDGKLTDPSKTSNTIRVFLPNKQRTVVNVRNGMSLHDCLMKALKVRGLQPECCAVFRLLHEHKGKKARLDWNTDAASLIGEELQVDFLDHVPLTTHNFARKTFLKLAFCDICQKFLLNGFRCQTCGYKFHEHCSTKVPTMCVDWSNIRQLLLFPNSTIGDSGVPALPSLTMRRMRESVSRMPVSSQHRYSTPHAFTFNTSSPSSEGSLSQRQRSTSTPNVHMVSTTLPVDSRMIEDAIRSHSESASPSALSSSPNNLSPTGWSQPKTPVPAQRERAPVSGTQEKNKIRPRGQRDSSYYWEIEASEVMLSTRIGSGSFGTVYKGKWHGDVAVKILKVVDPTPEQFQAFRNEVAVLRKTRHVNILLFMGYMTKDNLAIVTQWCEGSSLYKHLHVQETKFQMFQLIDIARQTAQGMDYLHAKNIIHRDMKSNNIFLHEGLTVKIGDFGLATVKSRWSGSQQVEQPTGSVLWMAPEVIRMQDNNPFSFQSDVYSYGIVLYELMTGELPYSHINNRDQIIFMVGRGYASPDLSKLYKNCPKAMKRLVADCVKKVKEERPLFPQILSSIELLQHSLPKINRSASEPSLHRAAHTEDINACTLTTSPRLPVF
T14 sequence (Q05397 411-686): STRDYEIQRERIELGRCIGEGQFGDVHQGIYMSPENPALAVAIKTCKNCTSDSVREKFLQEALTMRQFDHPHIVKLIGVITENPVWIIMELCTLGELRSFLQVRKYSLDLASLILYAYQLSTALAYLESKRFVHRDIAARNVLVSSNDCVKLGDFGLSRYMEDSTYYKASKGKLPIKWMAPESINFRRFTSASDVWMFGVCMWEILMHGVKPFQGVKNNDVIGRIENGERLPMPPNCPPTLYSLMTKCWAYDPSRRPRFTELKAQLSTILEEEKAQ

O=C(Nc1ccc(F)c(C(=O)c2c[nH]c3ncc(-c4cccnc4)cc23)c1F)NC1CCCC1 [Compound P-1317, 1-Cyclopentyl-3-[2,4-difluoro-3-(5-pyridin-3-yl-1H-pyrrolo[2,3-b]pyridine-3-carbonyl)-phenyl]-urea]
not listed: Csk | Frk | Brk | Stk6 | Fak | Kdr | Plk1
≤ 10 µM: all other assays above

CCCS(=O)(=O)Nc1ccc(Cl)c(C(=O)c2c[nH]c3ncc(Br)cc23)c1F [Compound P-0805, Propane-1-sulfonic acid [3-(5-bromo-1H-pyrrolo[2,3-b]pyridine-3-carbonyl)-4-chloro-2-fluoro-phenyl]-amide]
≤ 10 µM: B-Raf | Fms | Csk | B-Raf V600E | FGFR1 | Src | Flt1 | Frk | c-Raf-1 | Brk

CCCS(=O)(=O)Nc1cccc(C(=O)c2c[nH]c3ncc(Cl)cc23)c1F [Compound P-1013, propane-1-sulfonic acid [3-(5-chloro-1H-pyrrolo[2,3-b]pyridine-3-carbonyl)-2-fluoro-phenyl]-amide]
≤ 10 µM: B-Raf | Fms | Csk | Stk6 | Fak | B-Raf V600E | Src | Frk | c-Raf-1 | Kit | Brk

CCCS(=O)(=O)Nc1cccc(C(=O)c2c[nH]c3ncc(Br)cc23)c1F [Compound P-0955, Propane-1-sulfonic acid [3-(5-bromo-1H-pyrrolo[2,3-b]pyridine-3-carbonyl)-2-fluoro-phenyl]-amide]
not listed: Jnk1 | Gsk3β | Jnk3 | TEC | Flt1 | MAP4K4 | Btk | Kdr | Plk1
≤ 10 µM: all other assays above

CCCS(=O)(=O)Nc1ccc(F)c(C(=O)c2c[nH]c3ncc(-c4ccc(Cl)cc4)cc23)c1F [Compound P-0956, Propane-1-sulfonic acid {3-[5-(4-chloro-phenyl)-1H-pyrrolo[2,3-b]pyridine-3-carbonyl]-2,4-difluoro-phenyl}-amide]
≤ 10 µM: Jnk1 | Fms | Csk | Fak | FGFR1 | Src | Frk | Kit | Brk | Kdr

O=C(c1c(F)ccc(NS(=O)(=O)c2ccccc2)c1F)c1c[nH]c2nccc(Cl)c12 [Compound P-0954, N-[3-(4-Chloro-1H-pyrrolo[2,3-b]pyridine-3-carbonyl)-2,4-difluoro-phenyl]-benzenesulfonamide]
≤ 10 µM: B-Raf | Fms | TEC | B-Raf V600E | FGFR1 | c-Raf-1 | Kit | MAP4K4 | Plk1

O=C(c1c(F)ccc(NS(=O)(=O)N2CCCCC2)c1F)c1c[nH]c2ncc(Cl)cc12 [Compound P-1020, Piperidine-1-sulfonic acid [3-(5-chloro-1H-pyrrolo[2,3-b]pyridine-3-carbonyl)-2,4-difluoro-phenyl]-amide]
≤ 10 µM: B-Raf | Csk | Fak | TEC | B-Raf V600E | FGFR1 | Src | Frk | c-Raf-1 | Brk | Btk
